A short description of series [1]: Equilibrium saturated solubility in HFA-227 (comparative). It counts as physicochemical. The note with it: organic solvent or mixture, thermodynamic from solid, room temperature. The procedure:
(§1) In this Example, the equilibrium saturated solubility of CBD or Δ-9-THC individually in HFA-227 and HFA-134a was measured.
(§2) […]. Each solution was shaken at room temperature for 4 days, after which each solution was filtered to remove undissolved CBD and/or Δ-9-THC, and the concentration of each cannabinoid was measured. The equilibrium saturated solubility of each cannabinoid in each propellant was measured at room temperature.

Series [2] can be described thus: Equilibrium saturated solubility in HFA-134a (comparative). It counts as physicochemical. The settings on record: room temperature. The method, then: as §1, §2
The conditions of series [3]: for solubility at 14 days: organic solvent or mixture; for visual solubility: HFA-152a, after 14 days, ambient conditions or 5° C.
Series [4] is described as follows: Equilibrium saturated solubility in HFA-152a without cosolvent. The series is classed as physicochemical. The note with it: organic solvent or mixture, thermodynamic from solid, no cosolvent. The procedure: In this Example, the equilibrium saturated solubility of Δ-9-THC and CBD individually in HFA-152a. was measured.
[…]. Each solution was covered with aluminum foil to prevent UV light from reaching the drug. A first set of solutions was then shaken at room temperature for 4 days. A second set of solutions was stored at 5° C. and manually shaken several times per day. After 4 days, each solution was filtered to remove undissolved CBD and/or Δ-9-THC, and the concentration of each cannabinoid was measured. Formulations were assessed for solubility at room temperature and at 5° C.

In brackets after ≈: the same amount, converted by molar mass. Like-named read-outs stand apart in the source and are kept apart here.

As a reminder, the solubility is how much of the substance goes into solution per volume. Consider `C=C(C)[C@@H]1CCC(C)=C[C@H]1c1c(O)cc(CCCCC)cc1O` [CBD, 2-[(1R,6R)-6-Isopropenyl-3-methylcyclohex-2-en-1-yl]-5-pentylbenzene-1,3-diol], for which the solubility at 4 days was 1800 µg/mL (≈ 5.72 mM) in series [1], not below 16.4 mg/mL in series [4] (5° C.) and not below 15.7 mg/mL in series [4] (room temperature). Besides, in series [2] (4 days), the “equilibrium saturated solubility in HFA-134a” value stood at 2.5 mg/mL. Besides, in series [3] (HFA-152a with 1-3% ethanol by weight), the solubility at 14 days is not below 15.9 mg/mL. The visual solubility result was “Soluble” in series [3] (1% ethanol by weight), “soluble” in series [3] (2% ethanol by weight) and “soluble” in series [3] (3% ethanol by weight).
As to `CCCCCc1cc(O)c2c(c1)OC(C)(C)[C@@H]1CCC(C)=C[C@@H]21` [Δ-9-THC, (6aR,10aR)-6,6,9-trimethyl-3-pentyl-6a,7,8,10a-tetrahydro-6H-benzo[c]chromen-1-ol], the solubility at 4 days in series [1] was 1500 µg/mL (≈ 4.77 mM); in series [2] (organic solvent or mixture, thermodynamic from solid) it was 2300 µg/mL (≈ 7.31 mM); in series [4] (5° C.) it was not below 21.8 mg/mL; in series [4] (room temperature) it was not below 24.7 mg/mL. For the same compound, the solubility at 14 days in series [3] (HFA-152a with 4%, […]) was not below 15.9 mg/mL. For the same compound, the visual solubility entry in series [3] (4% ethanol by weight), in series [3] (5% ethanol by weight) and in series [3] (6% ethanol by weight) was “Soluble” in each case.
